Experimental data published in article PMC10251674, “Synthesis of novel mono- and bis-pyrazolylthiazole derivatives as anti-liver cancer agents through EGFR/HER2 target inhibition” (BMC Chemistry, 2023).
Like-named read-outs stand apart in the source and are kept apart here.

What was measured:
[1] = test system: THLE2 normal liver cells; assay: MTT cytotoxicity assay against THLE2 cells; format: cell-based; conditions: for IC50: Homo sapiens, THLE-2, MTT assay, 48 h, n = 3, read-out: IC50 ± SD THLE2
Protocol: (§1) HepG2 liver cancer cells and THLE2 normal liver cells were bought from the National Research Institute in Egypt and cultured in “RPMI-1640” media containing L-Glutamine (Lonza Verviers SPRL, Belgium, cat#12-604F). Fetal bovine serum (Sigma-Aldrich, MO, USA) and penicillin–streptomycin at a concentration of 10% and 1%, respectively, were added to both cell lines (Lonza, Belgium). All cells were incubated following routine tissue culture work. Cells were treated with the compounds at (0.01, 0.1, 1, 10, and 100 µM) concentrations. Cell viability was assessed after 48 h using MTT solution (Promega, USA). Finally, Absorbance was subsequently measured (at 570 nm) using ELISA microplate reader (BIO-RAD, model iMark, Japan). The percentage of cell viability was calculated, and IC50 values were recorded using the GraphPad prism 7, as previously reported in the literature.

[2] = test system: HepG2 liver cancer cells; assay: MTT cytotoxicity assay against HepG2 cells; format: cell-based; conditions: for IC50 / viability at 100 µM: Homo sapiens; for viability at 100 µM: read-out: cell viability at the highest concentration
Protocol: as §1

[3] = test system: Bcl-2; assay: RT-PCR gene expression of Bcl-2; format: cell-based; conditions: HepG2, treated at IC50, 48 h, normalised to β-actin, control = 1
Protocol: (§2) Genes of P53, Bax, and Caspases-3,8,9 were screened as proapoptotic genes, while Bcl-2 was screened as antiapoptotic, therefore, we measured their gene expression to investigate the apoptotic process. […] After treatment, RT-PCR reaction was carried out following routine work. The Ct values were then used to determine the fold change in gene expression between samples after normalization to the β-actin reference gene.

[4] = test system: HepG2 cells; assay: Annexin V/PI staining, flow cytometry; format: cell-based; conditions: HepG2, treated at IC50, 48 h
Protocol: Overnight, 6-well culture plates were stocked with HepG2 cells (3–5 × 10^5 cells/well). […] After that, the cells and the medium supernatants were separated and washed with ice-cold PBS. The next step was suspending the cells in 100 µL of annexin binding buffer solution "25 mM CaCl2, 1.4 M NaCl, and 0.1 M Hepes/NaOH, pH 7.4″ and incubation with “Annexin V-FITC solution (1:100) and propidium iodide (PI)” at a concentration equals 10 µg/mL in the dark for 30 min. After the cells were stained, they were gathered by Cytoflex FACS equipment. We used cytExpert to examine the data.

[5] = test system: caspase-3; assay: RT-PCR gene expression of caspase-3; format: cell-based; conditions: HepG2, treated at IC50, 48 h, normalised to β-actin, control = 1
Protocol: as §2

[6] = target: T1, HER2 kinase (Homo sapiens, UniProt P04626); assay: HER2 kinase inhibitory assay (BPS Bioscience kit); format: biochemical; conditions: average of three replicates, five concentrations
T1 construct: purchased BPS Bioscience 40721
Protocol: (§3) The autophosphorylation percentage inhibition of compounds was calculated by: 100-[Acontrol/Atreated-Control)] .

[7] = test system: Bax; assay: RT-PCR gene expression of Bax; format: cell-based; conditions: HepG2, treated at IC50, 48 h, normalised to β-actin, control = 1
Protocol: as §2

[8] = target: T2, EGFR kinase (Homo sapiens, UniProt P00533); assay: EGFR kinase inhibitory assay (BPS Bioscience kit); format: biochemical; conditions: average of three replicates, five concentrations
T2 construct: purchased BPS Bioscience 40321
Protocol: as §3

[9] = test system: HepG2 cells; assay: Cell cycle analysis by DNA flow cytometry; format: cell-based; conditions: HepG2, treated at IC50, 48 h
[10] = test system: caspase-8; assay: RT-PCR gene expression of caspase-8; format: cell-based; conditions: HepG2, treated at IC50, 48 h, normalised to β-actin, control = 1
Protocol: as §2

[11] = test system: caspase-9; assay: RT-PCR gene expression of caspase-9; format: cell-based; conditions: HepG2, treated at IC50, 48 h, normalised to β-actin, control = 1
Protocol: as §2

[12] = test system: P53; assay: RT-PCR gene expression of P53; format: cell-based; conditions: HepG2, treated at IC50, 48 h, normalised to β-actin, control = 1
Protocol: as §2

[13] = HepG2 cells, MTT assay, 48 h, n = 3, read-out: IC50 ± SD HepG2
[14] = HepG2, dose-response curve fit in Fig. 5
[15] = HepG2, dose-response curve fit in Fig. 5, read-out: IC50 (unit inferred)

T2 sequence (P00533 25-1210): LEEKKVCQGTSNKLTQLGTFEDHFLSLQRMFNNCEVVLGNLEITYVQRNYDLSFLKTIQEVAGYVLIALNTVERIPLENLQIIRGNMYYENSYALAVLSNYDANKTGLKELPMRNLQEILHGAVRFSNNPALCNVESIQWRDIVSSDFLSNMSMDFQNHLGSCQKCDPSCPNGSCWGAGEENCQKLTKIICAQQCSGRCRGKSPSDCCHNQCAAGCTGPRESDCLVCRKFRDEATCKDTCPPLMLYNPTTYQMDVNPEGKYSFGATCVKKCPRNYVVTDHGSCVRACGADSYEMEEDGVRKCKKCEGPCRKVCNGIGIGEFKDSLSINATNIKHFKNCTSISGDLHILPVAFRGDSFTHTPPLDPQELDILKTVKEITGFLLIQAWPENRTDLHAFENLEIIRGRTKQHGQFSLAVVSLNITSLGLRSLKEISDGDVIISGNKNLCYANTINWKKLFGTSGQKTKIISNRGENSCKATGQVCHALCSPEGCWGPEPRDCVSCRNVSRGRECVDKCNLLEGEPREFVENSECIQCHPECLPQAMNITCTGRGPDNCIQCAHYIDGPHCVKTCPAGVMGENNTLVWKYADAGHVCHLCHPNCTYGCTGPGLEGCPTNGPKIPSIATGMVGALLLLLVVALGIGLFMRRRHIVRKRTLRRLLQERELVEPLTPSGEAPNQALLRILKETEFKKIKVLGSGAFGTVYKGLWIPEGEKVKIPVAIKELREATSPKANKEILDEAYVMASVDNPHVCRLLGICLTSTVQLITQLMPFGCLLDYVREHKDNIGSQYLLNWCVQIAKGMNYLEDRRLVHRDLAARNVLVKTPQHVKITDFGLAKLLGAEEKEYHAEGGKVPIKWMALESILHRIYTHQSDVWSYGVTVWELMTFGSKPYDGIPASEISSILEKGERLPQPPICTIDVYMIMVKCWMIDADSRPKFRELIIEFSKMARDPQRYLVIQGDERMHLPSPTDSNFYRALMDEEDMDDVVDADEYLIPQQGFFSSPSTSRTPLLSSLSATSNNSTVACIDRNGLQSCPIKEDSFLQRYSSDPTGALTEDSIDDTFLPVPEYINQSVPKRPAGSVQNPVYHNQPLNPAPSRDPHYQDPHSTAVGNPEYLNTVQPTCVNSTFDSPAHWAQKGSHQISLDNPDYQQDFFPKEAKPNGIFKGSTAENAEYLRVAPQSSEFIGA
T1 sequence (P04626 23-1255): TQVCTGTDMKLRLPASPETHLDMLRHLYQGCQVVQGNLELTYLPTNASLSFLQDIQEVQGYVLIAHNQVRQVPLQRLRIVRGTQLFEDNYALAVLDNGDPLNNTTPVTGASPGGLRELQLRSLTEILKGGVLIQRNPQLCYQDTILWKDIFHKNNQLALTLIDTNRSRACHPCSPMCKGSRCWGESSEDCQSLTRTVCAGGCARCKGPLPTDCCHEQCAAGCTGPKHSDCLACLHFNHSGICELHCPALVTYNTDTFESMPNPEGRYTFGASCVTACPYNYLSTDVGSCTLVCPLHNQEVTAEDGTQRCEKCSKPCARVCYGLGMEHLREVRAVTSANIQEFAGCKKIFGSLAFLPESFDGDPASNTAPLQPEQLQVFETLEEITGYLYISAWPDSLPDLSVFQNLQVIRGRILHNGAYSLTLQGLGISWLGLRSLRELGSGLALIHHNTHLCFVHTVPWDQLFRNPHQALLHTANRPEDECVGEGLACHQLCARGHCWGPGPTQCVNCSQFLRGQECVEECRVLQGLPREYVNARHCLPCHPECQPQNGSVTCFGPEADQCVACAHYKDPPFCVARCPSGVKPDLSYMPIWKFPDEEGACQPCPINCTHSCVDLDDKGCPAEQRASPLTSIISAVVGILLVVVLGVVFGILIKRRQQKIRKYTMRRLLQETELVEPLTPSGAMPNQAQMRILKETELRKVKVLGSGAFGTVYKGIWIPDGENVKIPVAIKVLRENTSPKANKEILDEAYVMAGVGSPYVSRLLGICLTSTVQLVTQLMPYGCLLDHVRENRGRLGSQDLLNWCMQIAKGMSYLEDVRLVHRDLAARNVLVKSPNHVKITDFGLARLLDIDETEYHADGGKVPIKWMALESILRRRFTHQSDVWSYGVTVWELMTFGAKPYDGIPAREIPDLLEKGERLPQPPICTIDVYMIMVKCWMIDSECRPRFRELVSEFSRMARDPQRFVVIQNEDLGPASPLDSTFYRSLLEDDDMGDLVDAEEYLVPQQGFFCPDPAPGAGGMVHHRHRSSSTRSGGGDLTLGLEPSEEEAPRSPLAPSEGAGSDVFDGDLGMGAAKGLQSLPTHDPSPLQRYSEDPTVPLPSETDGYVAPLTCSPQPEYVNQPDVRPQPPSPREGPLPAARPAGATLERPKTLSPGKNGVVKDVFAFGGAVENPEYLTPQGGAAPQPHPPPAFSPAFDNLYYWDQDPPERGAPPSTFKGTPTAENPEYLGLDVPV

Compound	melting point [°C]	IC50 [1] [µM]	IC50 [2, 13] [µM]	other results
CC(=NNc1nc(-c2nn(-c3ccccc3)cc2C(=O)c2ccc3ccccc3c2)cs1)c1cc2ccccc2o1 [Compound 12, 2-(2-(1-(Benzofuran-2-yl)ethylidene)hydrazinyl)-4-(4-(2-naphthoyl)-1-phenylpyrazol-3-yl)thiazole]	164 to 166	≥ 50	5.48 ± 0.66	–
CC(=NNc1nc(-c2nn(-c3ccccc3)cc2C(=O)c2ccc3ccccc3c2)cs1)c1nc2ccccc2s1 [Compound 13, 2-(2-(1-(Benzothiazol-2-yl)ethylidene)hydrazinyl)-4-(4-(2-naphthoyl)-1-phenylpyrazol-3-yl)-thiazole]	143 to 145	≥ 50	5.16 ± 0.29	–
O=C(c1ccc2ccccc2c1)c1cn(-c2ccccc2)nc1-c1csc(NN=Cc2ccc([N+](=O)[O-])cc2)n1 [Compound 8d, 2-(4-Nitrobenzylidenehydrazinyl)-4-(4-(2-naphthoyl)-1-phenyl-pyrazol-3-yl)thiazole]	231 to 233	≥ 50	11.3 ± 0.34	–
O=C(c1ccc2ccccc2c1)c1cn(-c2ccccc2)nc1-c1csc(N/N=C/c2ccc(OCCCCOc3ccc(/C=N/Nc4nc(-c5nn(-c6ccccc6)cc5C(=O)c5ccc6ccccc6c5)cs4)cc3)cc2)n1 [Compound 18c, 1,4-Bis(4-((2-(4-((2-naphthoyl)-1-phenyl-1H-pyrazol-3-yl)thiazol-2-yl)hydrazono)methyl)-phenoxy)butane]	–	≥ 50	0.97 ± 0.09	Bcl-2 gene expression fold change [3]: 0.34 fold; increase of death rate (apoptotic cell death) ([4]; vs. untreated control): 63.6 fold; late apoptosis ([4]; AV+/PI+): 26.07%; early apoptosis ([4]; AV+/PI-): 15.28%; total apoptosis ([4]; untreated control 0.65%): 41.35%; caspase-3 gene expression fold change [5]: 9 fold; IC50 [6]: 0.00985 µM; cytotoxicity against THLE2 cells (in words) [1]: safe (non-cytotoxic); Bax gene expression fold change [7]: 8.9 fold; IC50 [8]: 0.00498 µM; cell cycle phase at which proliferation is arrested [9]: S-phase; cell population at S-phase ([9]; control 37.8%): 50.5%; LogIC50 [2, 14]: -0.01146; enhancement in anti-cancer potency on doubling the pharmacophoric scaffold ([2]; HepG2 IC50 of 18c vs. 8c): about eightfold; IC50 [2, 15]: 0.974 µM; viability at 100 µM ([2]; HepG2 cells): 5%; caspase-8 gene expression fold change [10]: 2.3 fold; caspase-9 gene expression fold change [11]: 7.6 fold; P53 gene expression fold change [12]: 8.6 fold
O=C(c1ccc2ccccc2c1)c1cn(-c2ccccc2)nc1C(=O)CBr [Compound 6, 3-Bromoacetyl-4-(2-naphthoyl)-1-phenyl-1H-pyrazole]	–	34.5 ± 1.26	16.3 ± 0.29	–
O=C(c1ccc2ccccc2c1)c1cn(-c2ccccc2)nc1-c1csc(NN=Cc2ccccc2)n1 [Compound 8a, 2-(Benzylidenehydrazinyl)-4-(4-(2-naphthoyl)-1-phenyl-pyrazol-3-yl)thiazole]	138 to 140	46.2 ± 2.01	8.64 ± 0.29	–
Cc1ccc(C=NNc2nc(-c3nn(-c4ccccc4)cc3C(=O)c3ccc4ccccc4c3)cs2)cc1 [Compound 8b, 2-(4-Methylbenzylidenehydrazinyl)-4-(4-(2-naphthoyl)-1-phenylpyrazol-3-yl)thiazole]	–	41.6 ± 1.86	8.16 ± 0.34	–
CC(=NNc1nc(-c2nn(-c3ccccc3)cc2C(=O)c2ccc3ccccc3c2)cs1)c1cc2ccccc2oc1=O [Compound 14, 2-(2-(1-(Coumarin-3-yl)ethylidene)hydrazinyl)-4-(4-(2-naphthoyl)-1-phenylpyrazol-3-yl)-thiazole]	239 to 241	39.5 ± 1.74	4.36 ± 0.38	–
COc1ccc(C=NNc2nc(-c3nn(-c4ccccc4)cc3C(=O)c3ccc4ccccc4c3)cs2)cc1 [Compound 8c, 2-(4-Methoxybenzylidenehydrazinyl)-4-(4-(2-naphthoyl)-1-phenyl-pyrazol-3-yl)thiazole]	–	≥ 50	7.39 ± 0.29	–
CS(=O)(=O)CCNCc1ccc(-c2ccc3ncnc(Nc4ccc(OCc5cccc(F)c5)c(Cl)c4)c3c2)o1 [Lapatinib, reference compound]	–	≥ 50	7.45 ± 0.32	–

More lines, main results first:

melting point [°C]	Compound	IC50 [1] [µM]	IC50 [2, 13] [µM]	other results
230 to 232	O=C(c1ccc2ccccc2c1)c1cn(-c2ccccc2)nc1-c1csc(N/N=C\c2ccccc2OCCCCOc2ccccc2/C=N\Nc2nc(-c3nn(-c4ccccc4)cc3C(=O)c3ccc4ccccc4c3)cs2)n1 [Compound 21c, 1,4-Bis(2-((2-(4-((2-naphthoyl)-1-phenyl-1H-pyrazol-3-yl)thiazol-2-yl)hydrazono)methyl)-phenoxy)butane]	45.6 ± 1.87	4.12 ± 0.19	–
166 to 168	O=C(c1ccc2ccccc2c1)c1cn(-c2ccccc2)nc1-c1csc(N/N=C\c2ccccc2OCCOc2ccccc2/C=N\Nc2nc(-c3nn(-c4ccccc4)cc3C(=O)c3ccc4ccccc4c3)cs2)n1 [Compound 21a, 1,2-Bis(2-((2-(4-((2-naphthoyl)-1-phenyl-1H-pyrazol-3-yl)thiazol-2-yl)hydrazono)methyl)-phenoxy)ethane]	≥ 50	3.26 ± 0.14	IC50 [6]: 0.0142 µM; cytotoxicity against THLE2 cells (in words) [1]: safe (non-cytotoxic); IC50 [8]: 0.0058 µM; LogIC50 [2, 14]: 0.514; IC50 [2, 15]: 3.27 µM; viability at 100 µM ([2]; HepG2 cells): 13%
200 to 202	O=C(c1ccc2ccccc2c1)c1cn(-c2ccccc2)nc1-c1csc(N/N=C/c2ccc(OCCCOc3ccc(/C=N/Nc4nc(-c5nn(-c6ccccc6)cc5C(=O)c5ccc6ccccc6c5)cs4)cc3)cc2)n1 [Compound 18b, 1,3-Bis(4-((2-(4-((2-naphthoyl)-1-phenyl-1H-pyrazol-3-yl)thiazol-2-yl)hydrazono)methyl)-phenoxy)propane]	≥ 50	3.57 ± 0.67	IC50 [6]: 0.0163 µM; cytotoxicity against THLE2 cells (in words) [1]: safe (non-cytotoxic); IC50 [8]: 0.00704 µM; LogIC50 [2, 14]: 0.5536; IC50 [2, 15]: 3.58 µM; viability at 100 µM ([2]; HepG2 cells): 9%
187 to 189	O=C(c1ccc2ccccc2c1)c1cn(-c2ccccc2)nc1-c1csc(N/N=C/c2ccc(OCCOc3ccc(/C=N/Nc4nc(-c5nn(-c6ccccc6)cc5C(=O)c5ccc6ccccc6c5)cs4)cc3)cc2)n1 [Compound 18a, 1,2-Bis(4-((2-(4-((2-naphthoyl)-1-phenyl-1H-pyrazol-3-yl)thiazol-2-yl)hydrazono)methyl)-phenoxy)ethane]	39.8 ± 1.59	8.34 ± 0.48	–
209 to 211	O=C(c1ccc2ccccc2c1)c1cn(-c2ccccc2)nc1-c1csc(N/N=C\c2ccccc2OCCCOc2ccccc2/C=N\Nc2nc(-c3nn(-c4ccccc4)cc3C(=O)c3ccc4ccccc4c3)cs2)n1 [Compound 21b, 1,3-Bis(2-((2-(4-((2-naphthoyl)-1-phenyl-1H-pyrazol-3-yl)thiazol-2-yl)hydrazono)methyl)-phenoxy)propane]	49.4 ± 2.1	9.36 ± 0.47	–
